Where a name gives a salt, the structure may show the parent alone.
Key:
Anesthetized Male Dog [1] = experiment: ET-1 induced changes in diastolic blood pressure (DBP) and intra-urethral pressure (IUP) in the anesthetized male dog; assay type: in vivo, mongrel dog; conditions: for % INHIBITION of ET-1 induced change in DBP, DEPRESSOR / % INHIBITION of ET-1 induced change in DBP, PRESSOR / % INHIBITION of ET-1 induced change in IUP, PRESSOR: 30 mg/kg intra-venous
Method: Methodology for determining whether an ET-1 selective antagonist could inhibit the ET-1 mediated prostatic urethral contractions in a mongrel dog model:
(§1) On separate days, two fasted male mongrel dogs (HRP, Inc.) weighing 11.0 and 12.4 kg, were anesthetized with Sodium Pentobarbital (Steris Laboratories, Inc.) at 35 mg/kg (i.v.) to effect, followed by 4 mg/kg/hr (i.v.) infusion. A cuffed endotracheal tube was inserted and each animal was ventilated with room air using a positive displacement large animal ventilator (Harvard Apparatus) at a rate of 18 breaths/minute and an average tidal volume of 18 ml/kg body weight. Body temperature was maintained with a heating pad and heat lamp using a temperature controller (YSI) and esophageal probe. Two catheters (PE 260) were placed in the aorta via the femoral arteries (one in each artery) for administration of endothelin or phenylephrine and for continuous direct monitoring of blood pressure and heart rate using a Statham blood pressure transducer (Spectramed) and a computer system (Modular Instruments, Inc.). Two other catheters (PE 260) were placed in the vena cava via the femoral veins (one catheter in each vein) for administration of pentobarbital and N-(4-iso-propylbenzenesulfonyl)-α-(4-carboxy-2-n-propylphenoxy)-3,4-methylenedioxyphenylacetamide dipotassium salt [Example 42]. A supra-pubic incision approximately one-half inch lateral to the penis was made to expose the ureters, urinary bladder, prostate, and urethra. The dome of the bladder was retracted to facilitate dissection of the ureters. The ureters were cannulated with PE 90 and tied off to the bladder. Umbilical tape was passed beneath the urethra at the bladder neck and another piece of tape was placed approximately 1-2 cm. distal to the prostate. The bladder dome was incised and a Micro-tip® catheter transducer (Millar Instruments, Inc.) was advanced into the urethra. The neck of the bladder was ligated with the umbilical tape to hold the transducer. The bladder incision was sutured wit 3-0 silk (purse string suture). The transducer was withdrawn until it was positioned in the prostatic urethra. The position of the Micro-tip® catheter was verified by gently squeezing the prostate and noting the large change in urethral pressure prior to ligating the distal urethra.
(§2) Phenylephrine (PB) (10 µg/kg, intra-arterial) was administered and pressor effects on diastolic blood pressure (DBP) and intra-urethral pressure (IUP) were noted. When blood pressure returned to baseline, endothelin-1 (ET-1) (1 nmole/kg, intra-arterial) was administered. Changes in DBP and IUP were monitored for one hour and an ET-1 selective endothelin antagonist, such as the compound of Example 42, N-(4-iso-propylbenzene-sulfonyl)-α-(4-carboxy-2-n-propylphenoxy)-3,4-methylenedioxyphenyl-acetamide dipotassium salt (30 mg/kg, intra-venous) was administered. Ten to fifteen minutes later when blood pressure had stabilized, ET-1 was administered again, and inhibition of ET-1 induced effects were noted. PE was administered at the end of the experiment to verify specificity for ET-1 blockade. The dogs were euthanized with an overdose of pentobarbital followed by saturated KCl.
(§3) All drugs were dissolved in isotonic saline solution.

Anesthetized Male Dog [2] = experiment: Phenylephrine (PE)-induced changes in DBP and IUP in the anesthetized male dog (specificity for ET-1 blockade); assay type: in vivo, mongrel dog
Method: as §1, with “Two other catheters (PE 260) were placed in the vena cava via the femoral veins (one catheter in each vein) for administration of pentobarbital and N-(4-iso-propylbenzenesulfonyl)-α-(4-carboxy-2-n-propylphenoxy)-3,4-methylenedioxyphenylacetamide dipotassium salt [Example 42].” left out
as §2, with “Changes in DBP and IUP were monitored for one hour and an ET-1 selective endothelin antagonist, such as the compound of Example 42, N-(4-iso-propylbenzene-sulfonyl)-α-(4-carboxy-2-n-propylphenoxy)-3,4-methylenedioxyphenyl-acetamide dipotassium salt (30 mg/kg, intra-venous) was administered.” left out
as §3

rat prostate = experiment: In situ rat prostate: ET-1 induced contraction; assay type: in vivo, Sprague-Dawley rats; conditions: antagonist injected IA
Method: Male Sprague-Dawley rats (Taconic Farms) weighing 300-400 grams were anesthetized with urethane (1.75 g/kg, ip), a tracheal cannula was inserted, and the femoral artery was cannulated. Core body temperature was maintained at 37 + 0.5 °C. A 4-5 cm midline abdominal incision was made to expose the bladder and prostate. The prostate was separated from the bladder and surrounding capsule by blunt dissection with a forcep. A length of surgical silk was gently secured around the anterior tips of the prostate lobes. A second length of surgical silk attached to an atraumatic needle was passed through and tied to the base of the prostate approximately 10-12 mm posterior to the first tie. The posterior ligature was secured to an anchor post whereas the anterior ligature was connected to a Grass FT03 transducer (Grass Instruments, Quincy, MA) and maintained at a tension of 1 g. Signals from the transducer were amplified and recorded on a polygraph (Hewlett-Packard 8805B amplifiers and 7758A recorder, Palo Alto, CA). After equilibrating for approximately 15 min, the rats were administered pretreatment drugs (atropine 1 mg/kg, (+) propranolol 1 mg/kg) 10 min apart through the intra-arterial (IA) cannula. […] The response of the prostate to FT-1 was quantified by measuring the change (Δ) from baseline tension to the peak of the response during the 5-minute period after the third FT-1 injection.

[3] = ET-1 (i.a.) alone, 1 nmole/kg, MEAN, n=2 dogs
[4] = ET-1 (i.a.) alone, 1 nmole/kg, dog HG FMHK
[5] = ET-1 (i.a.) alone, 1 nmole/kg, dog HG FMJC
[6] = Phenylephrine alone, 10 µg/kg intra-arterial, dog HG FMJC
[7] = ET-1 challenge after antagonist 30 mg/kg intra-venous, MEAN, n=2 dogs
[8] = ET-1 challenge after antagonist 30 mg/kg intra-venous, dog HG FMHK
[9] = ET-1 challenge after antagonist 30 mg/kg intra-venous, dog HG FMJC
[10] = 30 mg/kg intra-venous, dog HG FMJC

Molecule: Endothelin-1 [ET-1]
- CHANGE IN DBP (mmHg) DEPRESSOR (Anesthetized Male Dog [1]; [3]): -13 mmHg
- CHANGE IN DBP (mmHg) PRESSOR (Anesthetized Male Dog [1]; [3]): 26 mmHg
- CHANGE IN IUP (mmHg) PRESSOR (Anesthetized Male Dog [1]; [3]): 15 mmHg
- CHANGE IN DBP (mmHg) DEPRESSOR (Anesthetized Male Dog [1]; [4]): -15 mmHg
- CHANGE IN DBP (mmHg) PRESSOR (Anesthetized Male Dog [1]; [4]): 33 mmHg
- CHANGE IN IUP (mmHg) PRESSOR (Anesthetized Male Dog [1]; [4]): 11 mmHg
- CHANGE IN DBP (mmHg) DEPRESSOR (Anesthetized Male Dog [1]; [5]): -10 mmHg
- CHANGE IN DBP (mmHg) PRESSOR (Anesthetized Male Dog [1]; [5]): 19 mmHg
- CHANGE IN IUP (mmHg) PRESSOR (Anesthetized Male Dog [1]; [5]): 18 mmHg
- decrease in DBP (Anesthetized Male Dog [1]; ET-1 alone, 1 nmole/kg intra-arterial, average of both dogs): 13 mmHg

Molecule: CNC[C@H](O)c1cccc(O)c1 [Phenylephrine, reference compound]
- INCREASE IN DBP (mmHg) (Anesthetized Male Dog [2]; [6]): 17 mmHg
- INCREASE IN IUP (mmHg) (Anesthetized Male Dog [2]; [6]): 31 mmHg

Molecule: CCCc1cc(C(=O)O)ccc1OC(C(=O)NS(=O)(=O)c1ccc(C(C)C)cc1)c1ccc2c(c1)OCO2 (stereo not drawn) [Example 42, N-(4-iso-propylbenzenesulfonyl)-α-(4-carboxy-2-n-propylphenoxy)-3,4-methylenedioxyphenylacetamide dipotassium salt]
- % INHIBITION of ET-1 induced change in DBP, DEPRESSOR (Anesthetized Male Dog [1]; MEAN, n=2 dogs): 69%
- % INHIBITION of ET-1 induced change in DBP, PRESSOR (Anesthetized Male Dog [1]; MEAN, n=2 dogs): 76%
- % INHIBITION of ET-1 induced change in IUP, PRESSOR (Anesthetized Male Dog [1]; MEAN, n=2 dogs): 93%
- % INHIBITION of ET-1 induced change in DBP, DEPRESSOR (Anesthetized Male Dog [1]; dog HG FMHK): 67%
- % INHIBITION of ET-1 induced change in DBP, PRESSOR (Anesthetized Male Dog [1]; dog HG FMHK): 94%
- % INHIBITION of ET-1 induced change in IUP, PRESSOR (Anesthetized Male Dog [1]; dog HG FMHK): 91%
- % INHIBITION of ET-1 induced change in DBP, DEPRESSOR (Anesthetized Male Dog [1]; dog HG FMJC): 70%
- % INHIBITION of ET-1 induced change in DBP, PRESSOR (Anesthetized Male Dog [1]; dog HG FMJC): 58%
- % INHIBITION of ET-1 induced change in IUP, PRESSOR (Anesthetized Male Dog [1]; dog HG FMJC): 94%
- CHANGE IN DBP (mmHg) DEPRESSOR (Anesthetized Male Dog [1]; [7]): -4 mmHg
- CHANGE IN DBP (mmHg) PRESSOR (Anesthetized Male Dog [1]; [7]): 5 mmHg
- CHANGE IN IUP (mmHg) PRESSOR (Anesthetized Male Dog [1]; [7]): 1 mmHg
- CHANGE IN DBP (mmHg) DEPRESSOR (Anesthetized Male Dog [1]; [8]): -5 mmHg
- CHANGE IN DBP (mmHg) PRESSOR (Anesthetized Male Dog [1]; [8]): 2 mmHg
- CHANGE IN IUP (mmHg) PRESSOR (Anesthetized Male Dog [1]; [8]): 1 mmHg
- CHANGE IN DBP (mmHg) DEPRESSOR (Anesthetized Male Dog [1]; [9]): -3 mmHg
- CHANGE IN DBP (mmHg) PRESSOR (Anesthetized Male Dog [1]; [9]): 8 mmHg
- CHANGE IN IUP (mmHg) PRESSOR (Anesthetized Male Dog [1]; [9]): 1 mmHg
- hemodynamic and prostatic urethral responses to ET-1 (Anesthetized Male Dog [1]; anesthetized dogs): specifically inhibited
- % Inhibition of Control, PE-induced INCREASE IN DBP (Anesthetized Male Dog [2]; [10]): 35%
- % Inhibition of Control, PE-induced INCREASE IN IUP (Anesthetized Male Dog [2]; [10]): 13%
- Intra-arterial PE-induced increases in DBP and IUP after administration (Anesthetized Male Dog [2]; one dog studied): did not change significantly
- inhibition of ET-1 to contract the prostate (rat prostate): specific inhibition

Reference: patent publication EP0617001B1, “Phenoxyphenylacetic acid derivatives” (Merck & Co., Inc., priority 1993, dated 1994)
